Consider 30 molecules from ChEMBL document CHEMBL1817622, “Synthesis, structure-activity relationship and biological evaluation of novel N-substituted matrinic acid derivatives as host heat-stress cognate 70 (Hsc70) down-regulators” (2011).

Assay [1] has as its system HepG2 2.2.15. The assay can be described thus: Inhibition of Hsc70 mRNA expression in human HepG2(2.2.15) cells at 100 ug/ml after 24 hrs by RT-PCR analysis. In kind it is functional. The conditions noted are these: HepG2 2.2.15, 24 h.
Assay [2] is described as follows: Down regulation of Hsc70 protein level in human HepG2(2.2.15) cells after 24 hrs by RT-PCR analysis. In kind it is functional, cell-based.
The next assay concerns Hepatitis B virus. The assay can be described thus: Antiviral activity against Hepatitis B virus infected in human HepG2(2.2.15) cells assessed as inhibition of intracellular HBV DNA replication at 100 ug/mL for 24 hrs by RT-PCR analysis. In kind it is functional. Further details: scale not given: the % may be the effect or the level left.
Assay [3] in a line: Down regulation of Hsc70 protein level in human HepG2(2.2.15) cells at 500 ug/mL for 24 hrs by RT-PCR analysis. In kind it is functional, cell-based.
Assay [4] relates to HepG2 2.2.15. The experiment in a line: Ratio of […] to compound inhibition of mRNA expression in human HepG2(2.2.15) cells infected with Hepatitis B virus. In kind it is functional.
Assay [5] in a line: Down regulation of Hsc70 protein level in human HepG2(2.2.15) cells at 100 ug/mL for 24 hrs by RT-PCR analysis. In kind it is functional, cell-based.

Each structure is given as a SMILES string. The source made the active and inactive calls. The rule behind the calls is not given here.

`CCN1C[C@@H]2CCCN3CCC[C@@H]([C@H]23)[C@H]1CCCC(=O)O` yielded an inhibition at 100 µg/mL with HepG2 2.2.15 [1] of less than 10%.

Turning to `C[N+]1(C)C[C@@H]2CCCN3CCC[C@@H]([C@H]23)[C@H]1CCCC(=O)O`, the inhibition at 100 µg/mL in the assay on HepG2 2.2.15 [1] is 14.1%.

As to `Cc1ccc(S(=O)(=O)N2C[C@@H]3CCCN4CCC[C@@H]([C@H]34)[C@H]2CCCC(=O)O)cc1`, testing at 100 µg/mL in the assay with HepG2 2.2.15 [1] gave an inhibition of 39.8%.

In the assay on HepG2 2.2.15 [1], `O=C(O)CCC[C@@H]1[C@H]2CCCN3CCC[C@@H](CN1S(=O)(=O)c1ccccc1)[C@@H]23` returned an inhibition at 100 µg/mL of 22.1%.

In the assay on HepG2 2.2.15 [1], `O=C(O)CCC[C@@H]1[C@H]2CCCN3CCC[C@@H](CN1Cc1ccccc1)[C@@H]23` showed an inhibition at 100 µg/mL of 55.9%.

Turning to `Cc1cccc(OC(C)C(=O)N2C[C@@H]3CCCN4CCC[C@@H]([C@H]34)[C@H]2CCCC(=O)O)c1` (some centres not stated), the inhibition at 100 µg/mL in the assay with HepG2 2.2.15 [1] is less than 10%.

With `O=C(O)CCC[C@@H]1[C@H]2CCCN3CCC[C@@H](CN1CC1CC1)[C@@H]23`, in the assay on HepG2 2.2.15 [1], the inhibition at 100 µg/mL was less than 10%.

In the case of `COc1cccc(CN2C[C@@H]3CCCN4CCC[C@@H]([C@H]34)[C@H]2CCCC(=O)O)c1`, testing at 100 µg/mL with HepG2 2.2.15 [1] gave an inhibition of 55.6%.

Consider `O=C(O)CCC[C@@H]1[C@H]2CCC[N+]3([O-])CCC[C@@H](CN1CC1CC1)[C@@H]23` (some centres not stated), for which, in the assay on HepG2 2.2.15 [1], the inhibition at 100 µg/mL is less than 10%.

Regarding `CC(=O)N1C[C@@H]2CCCN3CCC[C@@H]([C@H]23)[C@H]1CCCC(=O)O`, in the assay on HepG2 2.2.15 [1], at 100 µg/mL the inhibition was 29.8%.

In turn, `Cc1cccc(OCC(=O)N2C[C@@H]3CCCN4CCC[C@@H]([C@H]34)[C@H]2CCCC(=O)O)c1` displayed an inhibition at 100 µg/mL in the assay with HepG2 2.2.15 [1] of less than 10%.

Turning to `O=C(O)CCC[C@@H]1[C@H]2CCCN3CCC[C@@H](CN1C(=O)CCl)[C@@H]23`, the inhibition at 100 µg/mL in the assay on HepG2 2.2.15 [1] was less than 10%.

`O=C(O)CCC[C@@H]1[C@H]2CCCN3CCC[C@@H](CN1C(=O)/C=C/c1ccccc1)[C@@H]23` returned an inhibition at 100 µg/mL with HepG2 2.2.15 [1] of less than 10%.

In the assay with HepG2 2.2.15 [1], `OCCCC[C@@H]1[C@H]2CCCN3CCC[C@@H](CN1Cc1ccccc1)[C@@H]23` showed an inhibition at 100 µg/mL of 25.5%.

`O=C(O)CCC[C@H]1NC[C@@H]2CCC[N+]3([O-])CCC[C@H]1[C@H]23` (some centres not stated) [OXYMATRINIC ACID] showed an inhibition at 100 µg/mL in the assay on HepG2 2.2.15 [1] of 45.5%.

For `O=C1CCC[C@@H]2[C@H]3CCC[N+]4([O-])CCC[C@@H](CN12)[C@@H]34` (some centres not stated) [OXYMATRINE], the Activity result in assay [2] was “Dose-dependent effect”; in the assay with Hepatitis B virus it was 56%. At 100 µg/mL the inhibition in the assay with HepG2 2.2.15 [1] was 52%.

In the assay with HepG2 2.2.15 [1], `COc1ccc(CN2C[C@@H]3CCC[N+]4([O-])CCC[C@@H]([C@H]34)[C@H]2CCCC(=O)O)cc1` (some centres not stated) showed an inhibition at 100 µg/mL of 69.7%.

As for `O=CN1C[C@@H]2CCCN3CCC[C@@H]([C@H]23)[C@H]1CCCC(=O)O`, the inhibition at 100 µg/mL in the assay with HepG2 2.2.15 [1] is less than 10%.

Turning to `COc1ccc(CN2C[C@@H]3CCCN4CCC[C@@H]([C@H]34)[C@H]2CCCCO)cc1`, the inhibition at 100 µg/mL in the assay on HepG2 2.2.15 [1] came out at 12.2%.

As to `COc1ccc(CN2C[C@@H]3CCCN4CCC[C@@H]([C@H]34)[C@H]2CCCC(=O)O)cc1`, the figures for the Activity result (in assay [2]; in the assay with Hepatitis B virus) were “Dose-dependent effect” and 77%, respectively. Also, the result in assay [3] and in assay [5] was Active. For the same molecule, in the assay on HepG2 2.2.15 [4], the “fold change (FC)” value worked out at 1.3. Besides, in the assay with HepG2 2.2.15 [1], testing at 100 µg/mL gave an inhibition of 72.1%.

As to `O=C(O)CCC[C@@H]1[C@H]2CCC[N+]3([O-])CCC[C@@H](CN1Cc1ccccc1)[C@@H]23` (some centres not stated), at 100 µg/mL the inhibition with HepG2 2.2.15 [1] was 58.2%.

In the assay with HepG2 2.2.15 [1], `O=C(O)CCC[C@@H]1[C@H]2CCCN3CCC[C@@H](CN1C(=O)CO)[C@@H]23` came in with an inhibition at 100 µg/mL of less than 10%.

As for `O=C(O)CCC[C@H]1NC[C@@H]2CCCN3CCC[C@H]1[C@H]23` [MATRINIC ACID], the inhibition at 100 µg/mL in the assay with HepG2 2.2.15 [1] was found to be 46.2%.

In the assay on HepG2 2.2.15 [1], `O=C1CCC[C@@H]2[C@H]3CCCN4CCC[C@@H](CN12)[C@@H]34` [MATRINE] showed an inhibition at 100 µg/mL of 52.4%.

In turn, `CCCN1C[C@@H]2CCCN3CCC[C@@H]([C@H]23)[C@H]1CCCC(=O)O` yielded an inhibition at 100 µg/mL in the assay on HepG2 2.2.15 [1] of less than 10%.

For `OCCCC[C@H]1NC[C@@H]2CCCN3CCC[C@H]1[C@H]23` [MATRINOL], at 100 µg/mL the inhibition with HepG2 2.2.15 [1] was 39.3%.

`O=C(O)CCC[C@@H]1[C@H]2CCCN3CCC[C@@H](CN1C(=O)c1ccccc1)[C@@H]23` returned an inhibition at 100 µg/mL in the assay with HepG2 2.2.15 [1] of 33.6%.

Molecule `O=C(O)CCC[C@@H]1[C@H]2CCCN3CCC[C@@H](CN1CCO)[C@@H]23` registered an inhibition at 100 µg/mL in the assay with HepG2 2.2.15 [1] of 53.7%.

Take `[O-][N+]12CCC[C@H]3CN[C@H](CCCCO)[C@@H](CCC1)[C@H]32` (some centres not stated) [OXYMATRINOL]: the inhibition at 100 µg/mL in the assay with HepG2 2.2.15 [1] was less than 10%.

Regarding `C[N+]1(C)C[C@@H]2CCC[N+]3([O-])CCC[C@@H]([C@H]23)[C@H]1CCCC(=O)O` (some centres not stated), the inhibition at 100 µg/mL in the assay on HepG2 2.2.15 [1] is less than 10%.

The term inhibition denotes the share of the control response that was lost under treatment.
